The assay deals with T1, GlyT1 (Homo sapiens, UniProt P48067).
T1 construct: expressed in transfected cells
T1 sequence (P48067 1-706): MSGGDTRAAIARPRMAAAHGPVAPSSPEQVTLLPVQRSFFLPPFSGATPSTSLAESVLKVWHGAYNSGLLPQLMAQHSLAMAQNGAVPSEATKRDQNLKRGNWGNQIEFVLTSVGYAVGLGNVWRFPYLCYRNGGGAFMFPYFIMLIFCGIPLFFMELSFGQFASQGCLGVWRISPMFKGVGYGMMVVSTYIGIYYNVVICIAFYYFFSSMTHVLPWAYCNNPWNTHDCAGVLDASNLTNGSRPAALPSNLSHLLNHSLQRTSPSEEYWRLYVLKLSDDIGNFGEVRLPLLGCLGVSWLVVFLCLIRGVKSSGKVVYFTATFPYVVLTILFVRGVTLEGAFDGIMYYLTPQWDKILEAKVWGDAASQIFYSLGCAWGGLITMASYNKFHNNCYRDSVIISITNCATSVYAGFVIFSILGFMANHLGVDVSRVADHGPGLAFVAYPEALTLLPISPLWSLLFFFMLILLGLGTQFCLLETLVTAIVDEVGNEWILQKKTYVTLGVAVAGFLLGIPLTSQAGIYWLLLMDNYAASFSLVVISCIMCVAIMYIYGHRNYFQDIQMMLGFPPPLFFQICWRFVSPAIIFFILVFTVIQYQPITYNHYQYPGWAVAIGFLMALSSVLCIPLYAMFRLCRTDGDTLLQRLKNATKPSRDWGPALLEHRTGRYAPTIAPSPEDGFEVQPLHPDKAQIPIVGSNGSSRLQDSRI
The assay can be described thus: Glycine Transporter 1 (GlyT1) uptake assay, scintillation proximity assay of [14C]-glycine uptake. The class given is cell-based. Conditions: SPA, four parameter logistic fit, read-out: GlyT1 (pIC50) (converted). In outline: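 [14C]-glycine uptake read by scintillation proximity on a plate counter. IC50 from four-parameter logistic fit of dose-response data.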
(In a scintillation proximity assay essentially only radioactivity close to the scintillant gives light.)
Take `N#Cc1ccc(OCC(F)(F)F)c(C(=O)N2CCc3nn(-c4ccncc4)cc3C2)c1Cl` [Example 155, 2-Chloro-3-[2-(pyridin-4-yl)-2H 4H 5H 6H 7H-pyrazolo[4,3-c]pyridine-5-carbonyl]-4-(2 2 2-trifluoroethoxy)benzonitrile]: the IC50 was 0.1 to 1 µM.
Take `COc1c(C#N)ccc(OCC(F)(F)F)c1C(=O)N1CCc2nn(-c3ccncc3)cc2C1` [Example 156, 2-Methoxy-3-[2-(pyridin-4-yl)-2H 4H 5H 6H 7H-pyrazolo[4,3-c]pyridine-5-carbonyl]-4-(2 2 2-trifluoroethoxy)benzonitrile]: the IC50 is less than 0.1 µM.
For the molecule `Cn1ncc2c1CN(C(=O)c1cc(S(C)(=O)=O)ccc1OCC1CC1)C2` [Example 157, 5-[2-(Cyclopropylmethoxy)-5-methanesulfonylbenzoyl]-1-methyl-1H 4H 5H 6H-pyrrolo[3,4-c]pyrazole], the IC50 is greater than 10 µM.
As for `Cn1ncc2c1CCN(C(=O)c1cc(S(C)(=O)=O)ccc1OCC1CC1)C2` [Example 158, 5-[2-(Cyclopropylmethoxy)-5-methanesulfonylbenzoyl]-1-methyl-1H 4H 5H 6H 7H-pyrazolo[4,3-c]pyridine], the IC50 is greater than 10 µM.
Take `CS(=O)(=O)c1ccc(OCC2CC2)c(C(=O)N2Cc3cnn(-c4cccc(C(F)(F)F)c4)c3C2)c1` [Example 159, 5-[2-(Cyclopropylmethoxy)-5-methanesulfonylbenzoyl]-1-[3-(trifluoromethyl)phenyl]-1H 4H 5H 6H-pyrrolo[3,4-c]pyrazole]: the IC50 is 1 to 10 µM.
With `CS(=O)(=O)c1ccc(OCC2CC2)c(C(=O)N2CCc3c(cnn3-c3cccc(C(F)(F)F)c3)C2)c1` [Example 160, 5-[2-(Cyclopropylmethoxy)-5-methanesulfonylbenzoyl]-1-[3-(trifluoromethyl)phenyl]-1H 4H 5H 6H 7H-pyrazolo[4,3-c]pyridine], the IC50 is 1 to 10 µM.
Turning to `CC(Oc1ccc(S(C)(=O)=O)cc1C(=O)N1CCc2c(cnn2C)C1)C(F)(F)F` (stereo not shown) [Example 161, 5-{5-Methanesulfonyl-2-[(1 1 1-trifluoropropan-2-yl)oxy]benzoyl}-1-methyl-1H 4H 5H 6H 7H-pyrazolo[4,3-c]pyridine], the IC50 is 1 to 10 µM.
Consider `CC(Oc1ccc(S(C)(=O)=O)cc1C(=O)N1CCc2c(cnn2-c2cccc(C(F)(F)F)c2)C1)C(F)(F)F` (stereo not shown) [Example 162, 5-{5-Methanesulfonyl-2-[(1 1 1-trifluoropropan-2-yl)oxy]benzoyl}-1-[3-(trifluoromethyl)phenyl]-1H 4H 5H 6H 7H-pyrazolo[4,3-c]pyridine], for which the IC50 was 0.1 to 1 µM.
As for `CC(Oc1ccc(S(C)(=O)=O)cc1C(=O)N1CCc2nn(-c3ccccc3)cc2C1)C(F)(F)F` (stereo not shown) [Example 163, 5-{5-Methanesulfonyl-2-[(1 1 1-trifluoropropan-2-yl)oxy]benzoyl}-2-phenyl-2H 4H 5H 6H 7H-pyrazolo[4,3-c]pyridine], the figure is 0.1 to 1 µM; as for `CC(Oc1ccc(S(C)(=O)=O)cc1C(=O)N1CCc2c(cnn2-c2ccccc2)C1)C(F)(F)F` (stereo not shown) [Example 164, 5-{5-Methanesulfonyl-2-[(1 1 1-trifluoropropan-2-yl)oxy]benzoyl}-1-phenyl-1H 4H 5H 6H 7H-pyrazolo[4,3-c]pyridine], 0.1 to 1 µM; as for `CS(=O)(=O)c1ccc(N2CCCCC2)c(C(=O)N2CCc3c(c(C(F)(F)F)nn3-c3ccccc3)C2)c1` [Example 165, 1-{4-Methanesulfonyl-2-[1-phenyl-3-(trifluoromethyl)-1H 4H 5H 6H 7H-pyrazolo[4,3-c]pyridine-5-carbonyl]phenyl}piperidine], 1 to 10 µM.
For the molecule `Cc1nn(-c2ccccc2)c2c1CN(C(=O)c1cc(S(C)(=O)=O)ccc1N1CCCCC1)CC2` [Example 166, 1-(4-Methanesulfonyl-2-{3-methyl-1-phenyl-1H 4H 5H 6H 7H-pyrazolo[4,3-c]pyridine-5-carbonyl}phenyl)piperidine], the IC50 was 0.1 to 1 µM.
Regarding `Cc1c2c(nn1-c1ccccc1)CCN(C(=O)c1cc(S(C)(=O)=O)ccc1N1CCCCC1)C2` [Example 167, 1-(4-Methanesulfonyl-2-{3-methyl-2-phenyl-2H 4H 5H 6H 7H-pyrazolo[4,3-c]pyridine-5-carbonyl}phenyl)piperidine], the IC50 is 0.1 to 1 µM.
Consider `CC(Oc1ccc(S(C)(=O)=O)cc1C(=O)N1CCc2c(c(C(F)(F)F)nn2-c2ccccc2)C1)C(F)(F)F` (stereo not shown) [Example 168, 5-{5-Methanesulfonyl-2-[(1 1 1-trifluoropropan-2-yl)oxy]benzoyl}-1-phenyl-3-(trifluoromethyl)-1H 4H 5H 6H 7H-pyrazolo[4,3-c]pyridine], for which the IC50 was 1 to 10 µM.
The value for `N#Cc1ccc(C2CCCC2)c(C(=O)N2CCc3nn(-c4ccccc4)cc3C2)c1` [Example 169, 4-Cyclopentyl-3-{2-phenyl-2H 4H 5H 6H 7H-pyrazolo[4,3-c]pyridine-5-carbonyl}benzonitrile] was 0.1 to 1 µM; that for `CS(=O)(=O)c1ccc(C2CCCC2)c(C(=O)N2CCc3nn(-c4ccccc4)cc3C2)c1` [Example 170, 5-(2-Cyclopentyl-5-methanesulfonylbenzoyl)-2-phenyl-2H 4H 5H 6H 7H-pyrazolo[4,3-c]pyridine] was less than 0.1 µM; that for `O=C(c1cc(N2CCOC2=O)ccc1C1CCCC1)N1CCc2nn(-c3ccccc3)cc2C1` [Example 171, 3-(4-Cyclopentyl-3-{2-phenyl-2H 4H 5H 6H 7H-pyrazolo[4,3-c]pyridine-5-carbonyl}phenyl)-1 3-oxazolidin-2-one] was 0.1 to 1 µM.
Regarding `CC(Oc1ccc(N2CCOC2=O)cc1C(=O)N1CCc2nn(-c3ccccc3)cc2C1)C(F)(F)F` (stereo not shown) [Example 172, 3-(3-{2-Phenyl-2H 4H 5H 6H 7H-pyrazolo[4,3-c]pyridine-5-carbonyl}-4-[(1 1 1-trifluoropropan-2-yl)oxy]phenyl)-1 3-oxazolidin-2-one], the IC50 was 1 to 10 µM.
As for `[2H]C1(c2ccc(C#N)cc2C(=O)N2CCc3nn(-c4ccccc4)cc3C2)CCCC1` [Example 173, 4-[(1-^2H)Cyclopentyl]-3-{2-phenyl-2H 4H 5H 6H 7H-pyrazolo[4,3-c]pyridine-5-carbonyl}benzonitrile], the figure is 0.1 to 1 µM; as for `N#Cc1ccc(C2CCC2)c(C(=O)N2CCc3nn(-c4ccccc4)cc3C2)c1` [Example 174, 4-Cyclobutyl-3-{2-phenyl-2H 4H 5H 6H 7H-pyrazolo[4,3-c]pyridine-5-carbonyl}benzonitrile], 1 to 10 µM.
As to `N#Cc1ccc(C2CCCC2)c(C(=O)N2CCc3nn(-c4ccccc4)cc3C2)c1F` [Example 175, 4-Cyclopentyl-2-fluoro-3-{2-phenyl-2H 4H 5H 6H 7H-pyrazolo[4,3-c]pyridine-5-carbonyl}benzonitrile], the IC50 is 0.1 to 1 µM.
As to `COc1c(C#N)ccc(OC(C)C(F)(F)F)c1C(=O)N1CCc2nn(-c3ccccc3)cc2C1` (stereo not shown) [Example 176, 2-Methoxy-3-{2-phenyl-2H 4H 5H 6H 7H-pyrazolo[4,3-c]pyridine-5-carbonyl}-4-[(1 1 1-trifluoropropan-2-yl)oxy]benzonitrile], the IC50 is less than 0.1 µM.
Turning to `CC(Oc1ccc(C#N)c(Cl)c1C(=O)N1CCc2nn(-c3ccc(F)cc3)cc2C1)C(F)(F)F` (stereo not shown) [Example 177, 2-Chloro-3-[2-(4-fluorophenyl)-2H 4H 5H 6H 7H-pyrazolo[4,3-c]pyridine-5-carbonyl]-4-[(1 1 1-trifluoropropan-2-yl)oxy]benzonitrile], the IC50 is 0.1 to 1 µM.
As for `N#Cc1ccc(C2(F)COC2)c(C(=O)N2CCc3nn(-c4ccccc4)cc3C2)c1F` [Example 178, 2-Fluoro-4-(3-fluorooxetan-3-yl)-3-{2-phenyl-2H 4H 5H 6H 7H-pyrazolo[4,3-c]pyridine-5-carbonyl}benzonitrile], the figure is greater than 10 µM.
As for `CC(Oc1ccc(C#N)c(Cl)c1C(=O)N1CCc2c(cnn2-c2ccc(F)cc2F)C1)C(F)(F)F` (stereo not shown) [Example 179, 2-Chloro-3-[1-(2 4-difluorophenyl)-1H 4H 5H 6H 7H-pyrazolo[4,3-c]pyridine-5-carbonyl]-4-[(1 1 1-trifluoropropan-2-yl)oxy]benzonitrile], the figure is 0.1 to 1 µM; as for `N#Cc1ccc(C2CCC2)c(C(=O)N2CCc3nn(-c4ccccc4)cc3C2)c1F` [Example 180, 4-Cyclobutyl-2-fluoro-3-{2-phenyl-2H 4H 5H 6H 7H-pyrazolo[4,3-c]pyridine-5-carbonyl}benzonitrile], 1 to 10 µM.
As for `CC(Oc1ccc(C#N)cc1C(=O)N1CCc2nn(-c3ccc(F)cc3)cc2C1)C(F)(F)F` (stereo not shown) [Example 181, 3-[2-(4-Fluorophenyl)-2H 4H 5H 6H 7H-pyrazolo[4,3-c]pyridine-5-carbonyl]-4-[(1 1 1-trifluoropropan-2-yl)oxy]benzonitrile], the figure is 1 to 10 µM.
Take `CC(Oc1ccc(C#N)c(Cl)c1C(=O)N1CCc2c(c(C(F)(F)F)nn2C)C1)C(F)(F)F` (stereo not shown) [Example 182, 2-Chloro-3-[1-methyl-3-(trifluoromethyl)-1H 4H 5H 6H 7H-pyrazolo[4,3-c]pyridine-5-carbonyl]-4-[(1 1 1-trifluoropropan-2-yl)oxy]benzonitrile]: the IC50 was 1 to 10 µM.

The values above are taken from patent US9708334B2, “Substituted 2,4,5,6-tetrahydropyrrolo[3,4-c]pyrazole and 4,5,6,7-tetrahydro-2H-pyrazolo[4,3-c]pyridine compounds as GlyT1 inhibitors” (DART NEUROSCIENCE (CAYMAN) LTD., priority 2014, dated 2017).
